# Results reported in patent US10287276B2, “Heteroaryl-1,2,4-triazole and heteroaryl-tetrazole compounds for controlling ectoparasites” (Elanco Tiergesundheit AG, priority 2016, dated 2019).
# Key:
# [1] = test system: Ctenocephalides Felis (Cat Flea); assay: Activity in vitro against Ctenocephalides felis (cat flea), Assay A; details: adult fleas fed on treated blood for 24 h; for pest or weed control at 100 ppm: Ctenocephalides felis, dead fleas counted, read-out: efficacy (EC80)
# Procedure: Activity In Vitro Against Ctenocephalides Felis (Cat Flea)—Assay A
# A mixed adult population of fleas is placed in a suitably formatted 96-well plate allowing fleas to access and feed on treated blood via an artificial feeding system. Fleas are fed on treated blood for 24 h, after which the compound effect is recorded. Insecticidal activity is determined on the basis of the number of dead fleas recovered from the feeding system.
# [2] = test system: Engorged Female Rhipicephalus microplus (Cattle Tick); assay: Activity in vitro against engorged female Rhipicephalus microplus (cattle tick), contact test; details: 672 h, organophosphorous-resistant Ultimo strain, evaluation 28 days later on mortality, oviposition and hatched larvae, read-out: efficacy (EC80)
# Procedure: Activity In Vitro Against Engorged Female Rhipicephalus microplus (Cattle Tick)
# A contact test is performed by pre-coating 6-well microplates with serial dilution of the compound to be evaluated for anti-parasitic activity. 10 engorged female ticks of the organophosphorous-resistant Ultimo strain are distributed to each well in triplicates. Plates are then incubated at 28° C. and 80% relative humidity. Evaluation takes place 28 days later based on mortality, oviposition and hatched larvae. […] Activity In Vivo Against Rhipicephalus sanguineus Nymphs on Mongolian Gerbils (Meriones unguiculatus) (Spray Application)
# [3] = test system: Rhipicephalus sanguineus (Dog Tick); assay: Activity in vitro against Rhipicephalus sanguineus (dog tick), Assay A, contact test; details: adult ticks; for pest or weed control at 100 ppm: Rhipicephalus sanguineus, 168 h, 28° C. and 80% relative humidity for 7 days, read-out: efficacy (EC80)
# Procedure: Activity In Vitro Against Rhipicephalus sanguineus (Dog Tick)—Assay A
# A contact test is performed by pre-coating microplate with serial dilution of compound allowing evaluating anti-parasitic activity by contact against ticks. A mixed adult tick population is then distributed to each well of the plate and incubated at 28° C. and 80% relative humidity for 7 days, during which the effect of the test compound is monitored. Acaricidal activity is confirmed if and when adult ticks are dead.
# [4] = test system: Lucilla Cuprina (Australian sheep blowfly); assay: Activity in vitro against Lucilla cuprina (Australian sheep blowfly), Assay A; details: eggs on agar-based medium; for pest or weed control at 32 ppm: Lucilia cuprina, 96 h, 4 days at 28° C. and 60% relative humidity, read-out: efficacy (EC80)
# Procedure: Activity in vitro against Lucilla Cuprina (Australian sheep blowfly)—Assay A
# Freshly laid blowfly eggs are used to seed a suitably formatted microplate containing the test substances to be evaluated for antiparasitic activity. Each compound is tested by serial dilution in order to determine its minimum efficacy dose. The test compounds are embedded in an agar-based nutritive medium allowing the full development of the eggs into 3rd instar larvae. The incubation lasts for 4 days at 28° C. and 60% relative humidity. Egg-hatching and ensuing larval development are also recorded to identify a possible growth-regulating activity.
# Lice (Polyplax serrata) = assay: Activity in vivo against lice (Polyplax serrata) in mice (topical); details: pour-on application, live lice on day +4 and +14, Henderson & Tilton formula, read-out: efficacy (EC90)
# Procedure: Activity In Vivo Against Lice (Polyplax serrata) in Mice (Topical) Mice naturally infected with P. serrata are treated with the formulated test compound on day 0 by pour-on application. On day +4 and +14, efficacy is evaluated by counting the number of live lice under a binocular. Efficacy at the two time points is expressed as a comparison of lice numbers counted on the same mouse before treatment, using the Henderson & Tilton formula, taking also into account lice numbers found on mice treated with the empty formulation (placebo group): [formula] n=number of lice, T=treated group, Co=control/placebo group.
# [5] = test system: Rhipicephalus sanguineus Nymphs; assay: Activity in vivo against Rhipicephalus sanguineus nymphs on Mongolian gerbils; details: topical, 0 h, pour on application day 0, tick number reduction vs placebo, Abbott's formula, read-out: efficacy (EC90)
# Procedure: On day 0, gerbils are treated with the test compound at a given dose by pour on application. On day +1 (+2), the animals are infested with nymphs of R. sanguineus. Ticks are left on the animals until full repletion. Seven days after infestation nymphs dropped off fully engorged are collected and counted. They are kept until molting to also evaluate growth regulating activity of the test compound. Efficacy in killing (and growth regulating) is expressed as a tick number (and molted tick number) reduction in comparison with a placebo treated group, using the Abbott's formula:
# n=number of live ticks. T=treated group. Co=control/placebo group.
Compound,pest or weed control at 100 ppm [1] [%],pest or weed control at 200 ppm [2] [%],pest or weed control at 100 ppm [3] [%],pest or weed control at 32 ppm [4] [%],inhibition in vivo at 32 mg/kg (Lice (Polyplax serrata)) [%],inhibition in vivo at 32 mg/kg [5] [%],EC80 [1] [ppm],EC50 ([3]; 7 days) [ppm],EC50 ([4]; 4 days at 28° C.) [ppm]
"CC(c1ncnn1-c1ncccn1)N(CC1CC1)C(=O)c1cc(Cl)cc(OC(F)(F)F)c1 (centres unmarked) [Example 37, 3-chloro-N-(cyclopropylmethyl)-N-[1-(2-pyrimidin-2-yl-1,2,4-triazol-3-yl)ethyl]-5-(trifluoromethoxy)benzamide]",> 80,> 80,> 80,> 80,> 90,> 90,,,
"C#CCN(C(=O)c1cc(C(F)(F)F)cc(C(F)(F)F)c1)C(C)c1ncnn1-c1ncccn1 (centres unmarked) [Example 35, N-Prop-2-ynyl-N-[1-(2-pyrimidin-2-yl-1,2,4-triazol-3-yl)ethyl]-3,5-bis(trifluoromethyl)benzamide]",> 80,> 80,> 80,> 80,> 90,> 90,,,
"COc1cnc(-n2ncnc2C(C)N(CC2CC2)C(=O)c2cc(C(F)(F)F)cc(C(F)(F)F)c2)nc1 (centres unmarked) [Example 39, N-(Cyclopropylmethyl)-N-[1-[2-(5-methoxypyrimidin-2-yl)-1,2,4-triazol-3-yl]ethyl]-3,5-bis(trifluoromethyl)benzamide]",> 80,> 80,> 80,> 80,> 90,> 90,,,
"CCCN(C(=O)c1cc(Cl)cc(C(F)(F)F)c1)C(C)c1ncnn1-c1ccccn1 (centres unmarked) [Example 8, 3-Chloro-N-propyl-N-[1-[2-(2-pyridyl)-1,2,4-triazol-3-yl]ethyl]-5-(trifluoromethyl)benzamide]",> 80,> 80,,> 80,,> 90,,,
"CC(c1ncnn1-c1ccccn1)N(CC1CC1)C(=O)c1cc(Cl)cc(OC(F)(F)F)c1 (centres unmarked) [Example 10, 3-Chloro-N-(cyclopropylmethyl)-N-[1-[2-(2-pyridyl)-1,2,4-triazol-3-yl]ethyl]-5-(trifluoromethoxy)benzamide]",> 80,> 80,> 80,> 80,> 90,> 90,,,
"C#CCN(C(=O)c1cc(Cl)cc(OC(F)(F)F)c1)C(C)c1ncnn1-c1ccccn1 (centres unmarked) [Example 18, 3-Chloro-N-prop-2-ynyl-N-[1-[2-(2-pyridyl)-1,2,4-triazol-3-yl]ethyl]-5-(trifluoromethoxy)benzamide]",> 80,> 80,,> 80,> 90,> 90,10,,
"C#CCN(C(=O)c1cc(Cl)cc(C(F)(F)F)c1)C(C)c1ncnn1-c1ncccn1 (centres unmarked) [Example 41, 3-Chloro-N-prop-2-ynyl-N-[1-(2-pyrimidin-2-yl-1,2,4-triazol-3-yl)ethyl]-5-(trifluoromethyl)benzamide]",> 80,> 80,> 80,> 80,> 90,> 90,,32,1
"CC(c1ncnn1-c1ncccn1)N(CCF)C(=O)c1cc(Cl)cc(C(F)(F)F)c1 (centres unmarked) [Example 23, 3-Chloro-N-(2-fluoroethyl)-N-[1-(2-pyrimidin-2-yl-1,2,4-triazol-3-yl)ethyl]-5-(trifluoromethyl)benzamide]",,> 80,,> 80,,> 90,,,
"C[C@@H](c1ncnn1-c1ncccn1)N(CC1CC1)C(=O)c1cc(C(F)(F)F)cc(C(F)(F)F)c1 [Example 49, N-(Cyclopropylmethyl)-N-[(1S)-1-(2-pyrimidin-2-yl-1,2,4-triazol-3-yl)ethyl]-3,5-bis(trifluoromethyl)benzamide]",> 80,,> 80,> 80,> 90,> 90,,,
"C[C@@H](c1ncnn1-c1ccccn1)N(CC1CC1)C(=O)c1cc(C(F)(F)F)cc(C(F)(F)F)c1 [Example 44, N-(Cyclopropylmethyl)-N-[(1S)-1-[2-(2-pyridyl)-1,2,4-triazol-3-yl]ethyl]-3,5-bis(trifluoromethyl)benzamide]",> 80,> 80,,> 80,,> 90,,,
"CC(c1ncnn1-c1ncccn1)N(CC1CC1)C(=O)c1cncc(C(F)(F)F)c1 (centres unmarked) [Example 28, N-(Cyclopropylmethyl)-N-[1-(2-pyrimidin-2-yl-1,2,4-triazol-3-yl)ethyl]-5-(trifluoromethyl)pyridine-3-carboxamide]",> 80,,> 80,> 80,> 90,> 90,,,
"CC(c1ncnn1-c1ccccn1)N(CC1CC1(F)F)C(=O)c1cc(C(F)(F)F)cc(C(F)(F)F)c1 (centres unmarked) [Example 16, N-[(2,2-Difluorocyclopropyl)methyl]-N-[1-[2-(2-pyridyl)-1,2,4-triazol-3-yl]ethyl]-3,5-bis(trifluoromethyl)benzamide]",> 80,> 80,,> 80,> 90,> 90,,,
"C[C@@H](c1ncnn1-c1ncccn1)N(CC1CC1)C(=O)c1cncc(C(F)(F)F)c1 [Example 45, N-(Cyclopropylmethyl)-N-[(1S)-1-(2-pyrimidin-2-yl-1,2,4-triazol-3-yl)ethyl]-5-(trifluoromethyl)pyridine-3-carboxamide]",> 80,> 80,,> 80,,> 90,,,
"CC(c1ncnn1-c1ccccn1)N(CCC(F)(F)F)C(=O)c1cc(C(F)(F)F)cc(C(F)(F)F)c1 (centres unmarked) [Example 12, N-[1-[2-(2-Pyridyl)-1,2,4-triazol-3-yl]ethyl]-3,5-bis(trifluoromethyl)-N-(3,3,3-trifluoropropyl)benzamide]",,> 80,> 80,> 80,> 90,> 90,,,
"CC(c1ncnn1-c1ccccn1)N(CC#N)C(=O)c1cc(C(F)(F)F)cc(C(F)(F)F)c1 (centres unmarked) [Example 14, N-(Cyanomethyl)-N-[1-[2-(2-pyridyl)-1,2,4-triazol-3-yl]ethyl]-3,5-bis(trifluoromethyl)benzamide]",> 80,> 80,> 80,> 80,,> 90,,,
"CC(c1ncnn1-c1ccccn1)N(CC1CC1)C(=O)c1cncc(C(F)(F)F)c1 (centres unmarked) [Example 9, N-(Cyclopropylmethyl)-N-[1-[2-(2-pyridyl)-1,2,4-triazol-3-yl]ethyl]-5-(trifluoromethyl)pyridine-3-carboxamide]",> 80,> 80,> 80,> 80,,> 90,,,
